Drawing on patent publication US9296745B2, “Diacylglycerol acyltransferase 2 inhibitors” (Pfizer Inc., priority 2012, dated 2016), this text covers IC50 for 30 molecules.

Read-outs that look alike come from different tables or passages of the source.

Usually IC50 stands for the concentration at which inhibition is half-maximal.

The test concerns the target Human DGAT2 (hDGAT2) (Homo sapiens (Human), UniProt Q96PD7). Briefly: In vitro DGAT2 assay, IC50 determination with hDGAT2 membrane fraction. The format is biochemical. The conditions noted are these: read-out: DGAT2 IC50. The method, boiled down:
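CHAPS-solubilized membrane fraction of FLAG-tagged hDGAT2 from baculovirus-infected SF9 cells (0.01 mg/mL) in 100 mM Hepes-NaOH pH 7.4, 20 mM MgCl2, 200 nM methyl arachidonyl fluorophosphonate; compounds pre-incubated 20 min with 0.04% BSA. Reaction 40 min at room temperature, stopped with H3PO4. [^14C]tridecanoylglycerol in organic phase counted; 11-point geometric mean IC50.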

Setting [1] is: geometric mean, background for complete inhibition of DGAT2 obtained with 50 μM (1R,2R)-2-({3′-Fluoro-4′-[(6-fluoro-1,3-benzothiazol-2-yl)amino]-1,1′-biphenyl-4-yl}carbonyl)cyclopentanecarboxylic acid.

Sequence of Human DGAT2 (hDGAT2) (Q96PD7 whole entry): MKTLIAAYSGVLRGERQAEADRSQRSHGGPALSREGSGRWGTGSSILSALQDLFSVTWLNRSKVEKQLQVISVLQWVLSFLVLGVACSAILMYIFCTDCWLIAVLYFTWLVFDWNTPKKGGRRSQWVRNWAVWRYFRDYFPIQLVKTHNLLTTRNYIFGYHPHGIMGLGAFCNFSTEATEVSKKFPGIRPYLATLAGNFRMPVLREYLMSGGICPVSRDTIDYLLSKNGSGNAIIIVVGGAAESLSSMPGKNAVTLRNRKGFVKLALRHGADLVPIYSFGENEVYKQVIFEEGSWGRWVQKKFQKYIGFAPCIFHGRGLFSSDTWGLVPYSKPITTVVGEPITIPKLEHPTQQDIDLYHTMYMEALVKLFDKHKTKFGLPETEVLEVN

For the molecule `COC(=O)c1cccc(-c2nc3ccc(N4CCC[C@@H](C(=O)N5CCCC5)C4)nc3[nH]2)c1` [Example 125, (R)-Methyl 3-(5-(3-(pyrrolidine-1-carbonyl)piperidin-1-yl)-3H-imidazo[4,5-b]pyridin-2-yl)benzoate], the IC50 under setting [1] was 0.054 µM.

As to `CSc1cnn(C2(c3nc4ccc(N5CCC[C@@H](C(=O)N6CCCC6)C5)nc4[nH]3)CC2)c1` [Example 189, (R)-(1-(2-(1-(4-(Methylthio)-1H-pyrazol-1-yl)cyclopropyl)-3H-imidazo[4,5-b]pyridin-5-yl)piperidin-3-yl)(pyrrolidin-1-yl)methanone], the half-inhibitory concentration (IC50) under setting [1] came out at 0.0341 µM. As to `CCOC(=O)c1cc(OC)nc(-c2nc3ccc(N4CCC[C@@H](C(=O)N5CCCC5)C4)nc3[nH]2)c1` [Example 96, (R)-Ethyl 2-methoxy-6-(5-(3-(pyrrolidine-1-carbonyl)piperidin-1-yl)-3H-imidazo[4,5-b]pyridin-2-yl)isonicotinate], the 50% inhibitory concentration (IC50) under setting [1] was 0.0373 µM. Regarding `FC(F)Oc1cccc(-c2nc3ccc(N4CCO[C@H](c5ccccn5)C4)nc3[nH]2)c1` [Example 145, (S)-4-(2-(3-(difluoromethoxy)phenyl)-3H-imidazo[4,5-b]pyridin-5-yl)-2-(pyridin-2-yl)morpholine], the IC50 under setting [1] stood at 0.411 µM.

Turning to `O=C([C@H]1CN(c2ccc3nc(-c4cccc(C(F)(F)F)n4)[nH]c3n2)CCO1)N1CCCC1` [Example 143, (R)-Pyrrolidin-1-yl(4-(2-(6-(trifluoromethyl)pyridin-2-yl)-3H-imidazo[4,5-b]pyridin-5-yl)morpholin-2-yl)methanone], the IC50 under setting [1] amounted to 0.511 µM. Regarding `COC(=O)c1cccc(-c2nc3ccc(N4CCC[C@@H](C(=O)N5CCCC5)C4)nc3[nH]2)n1` [Example 123, (R)-Methyl 6-(5-(3-(pyrrolidine-1-carbonyl)piperidin-1-yl)-1H-imidazo[4,5-b]pyridin-2-yl)picolinate], under setting [1], the IC50 was 0.276 µM.

For the molecule `O=C([C@H]1CN(c2ccc3nc(-c4cccc(C5CC5)n4)[nH]c3n2)CCO1)N1CCOCC1` [Example 186, (R)-(4-(2-(6-Cyclopropylpyridin-2-yl)-3H-imidazo[4,5-b]pyridin-5-yl)morpholin-2-yl)(morpholino)methanone], the IC50 under setting [1] is 0.162 µM. On the same count and under the same terms, the figure for `O=C([C@@H]1CCCN(c2ccc3nc(-c4ccnc(C5CCC5)n4)[nH]c3n2)C1)N1CCCC1` [Example 147, (R)-(1-(2-(2-Cyclobutylpyrimidin-4-yl)-3H-imidazo[4,5-b]pyridin-5-yl)piperidin-3-yl)(pyrrolidin-1-yl)methanone] is 0.00921 µM; for `O=C([C@@H]1CCCN(c2ccc3nc(-c4cccc(-c5nnn[nH]5)c4)[nH]c3n2)C1)N1CCCC1` [Example 163, (R)-(1-(2-(3-(2H-Tetrazol-5-yl)phenyl)-3H-imidazo[4,5-b]pyridin-5-yl)piperidin-3-yl)(pyrrolidin-1-yl)methanone] it is 3.4 µM; for `O=C([C@@H]1CCCN(c2ccc3nc(-c4cncc(Cl)c4)[nH]c3n2)C1)N1CCCC1` [Example 7, (R)-(1-(2-(5-Chloropyridin-3-yl)-3H-imidazo[4,5-b]pyridin-5-yl)piperidin-3-yl)(pyrrolidin-1-yl)methanone] it is 0.0163 µM. Still for that read-out and setting: the figure for `O=C([C@@H]1CCCN(c2ccc3nc(-c4coc(-c5ccccc5)n4)[nH]c3n2)C1)N1CCCC1` [Example 39, (R)-(1-(2-(2-Phenyloxazol-4-yl)-3H-imidazo[4,5-b]pyridin-5-yl)piperidin-3-yl)(pyrrolidin-1-yl)methanone] is 0.00685 µM; for `CCOC(=O)C1(c2cccc(-c3nc4ccc(N5CCC[C@@H](C(=O)N6CCCC6)C5)nc4[nH]3)c2)CC1` [Example 124, (R)-Ethyl 1-(3-(5-(3-(pyrrolidine-1-carbonyl)piperidin-1-yl)-3H-imidazo[4,5-b]pyridin-2-yl)phenyl)cyclopropanecarboxylate] it is 0.00527 µM; for `c1ccc(C2CCCN(c3ccc4nc(-c5ccnc(C6CC6)n5)[nH]c4n3)C2)nc1` (stereo not drawn) [Example 59, 2-(2-Cyclopropylpyrimidin-4-yl)-5-(3-(pyridin-2-yl)piperidin-1-yl)-3H-imidazo[4,5-b]pyridine] it is 0.858 µM. Turning to `CC(C)(c1ccccc1)c1nc2ccc(N3CCC[C@@H](C(=O)N4CCCC4)C3)nc2[nH]1` [Example 22, (R)-(1-(2-(2-Phenylpropan-2-yl)-3H-imidazo[4,5-b]pyridin-5-yl)piperidin-3-yl)(pyrrolidin-1-yl)methanone], the IC50 under setting [1] turned out to be 0.357 µM.

For `CC(c1ccccc1)c1nc2ccc(N3CCC[C@@H](C(=O)N4CCCC4)C3)nc2[nH]1` (stereo partly drawn) [Example 157, (R)-(1-(2-(1-Phenylethyl)-3H-imidazo[4,5-b]pyridin-5-yl)piperidin-3-yl)(pyrrolidin-1-yl)methanone], the half-maximal inhibitory concentration (IC50) under setting [1] came to 0.211 µM. On to `O=C([C@@H]1CCCN(c2ccc3nc(C4(c5ccc(C(F)(F)F)cc5)CC4)[nH]c3n2)C1)N1CCCC1` [Example 106, (R)-Pyrrolidin-1-yl(1-(2-(1-(4-(trifluoromethyl)phenyl)cyclopropyl)-3H-imidazo[4,5-b]pyridin-5-yl)piperidin-3-yl)methanone], for which the IC50 under setting [1] came out at 0.00568 µM.

For `CN(CC1CC1)C(=O)[C@@H]1CCCN(c2ccc3nc(-c4ccnc(C5CC5)n4)[nH]c3n2)C1` [Example 221, (R)—N-(Cyclopropylmethyl)-1-(2-(2-cyclopropylpyrimidin-4-yl)-3H-imidazo[4,5-b]pyridin-5-yl)-N-methylpiperidine-3-carboxamide], the IC50 under setting [1] was determined as 0.29 µM. Take `C[C@@H]1CC[C@H](C(=O)N2CCCC2)CN1c1ccc2nc(C3(n4cc(Cl)cn4)CC3)[nH]c2n1` [Example 217, ((3S,6R)-1-(2-(1-(4-chloro-1H-pyrazol-1-yl)cyclopropyl)-3H-imidazo[4,5-b]pyridin-5-yl)-6-methylpiperidin-3-yl)(pyrrolidin-1-yl)methanone]: the IC50 is 0.131 µM. On to `O=C([C@@H]1CCCN(c2ccc3nc(-c4ccccc4)[nH]c3n2)C1)N1CCCC1` [Example 116, (R)-(1-(2-Phenyl-3H-imidazo[4,5-b]pyridin-5-yl)piperidin-3-yl)(pyrrolidin-1-yl)methanone], for which the IC50 under setting [1] stood at 0.0662 µM. In the case of `O=C([C@@H]1CCCN(c2ccc3nc(C4CC4)[nH]c3n2)C1)N1CCCC1` [Example 29, (R)-(1-(2-Cyclopropyl-3H-imidazo[4,5-b]pyridin-5-yl)piperidin-3-yl)(pyrrolidin-1-yl)methanone], the IC50 under setting [1] stood at 4.37 µM.

On to `O=C([C@@H]1CCCN(c2ccc3nc(-c4cncc(C5CC5)n4)[nH]c3n2)C1)N1CCOCC1` [Example 107, (R)-(1-(2-(6-Cyclopropylpyrazin-2-yl)-3H-imidazo[4,5-b]pyridin-5-yl)piperidin-3-yl)(morpholino)methanone], for which, under setting [1], the half-inhibitory concentration (IC50) is 0.153 µM.

As for `O=C([C@H]1CN(c2ncc3nc(C4(n5cc(Cl)cn5)CC4)[nH]c3n2)CCO1)N1CCCC1` [Example 213, (R)-(4-(8-(1-(4-Chloro-1H-pyrazol-1-yl)cyclopropyl)-9H-purin-2-yl)morpholin-2-yl)(pyrrolidin-1-yl)methanone], under setting [1], the concentration for half-maximal inhibition (IC50) worked out at 0.161 µM. With `O=C([C@@H]1CCCN(c2ncc3nc(-c4ccnc(C5CC5)n4)[nH]c3n2)C1)N1CCCC1` [Example 159, (R)-(1-(8-(2-Cyclopropylpyrimidin-4-yl)-9H-purin-2-yl)piperidin-3-yl)(pyrrolidin-1-yl)methanone], the half-maximal inhibitory concentration (IC50) under setting [1] stood at 0.0282 µM. Consider `COC(=O)Cc1cccc(-c2nc3ccc(N4CCC[C@@H](C(=O)N5CCCC5)C4)nc3[nH]2)c1` [Example 110, (R)-Methyl 2-(3-(5-(3-(pyrrolidine-1-carbonyl)piperidin-1-yl)-3H-imidazo[4,5-b]pyridin-2-yl)phenyl)acetate], for which the IC50 under setting [1] came out at 0.0415 µM.

As for `O=C([C@@H]1CCCN(c2ccc3nc(C4(c5ccon5)CC4)[nH]c3n2)C1)N1CCCC1` [Example 93, (R)-(1-(2-(1-(Isoxazol-3-yl)cyclopropyl)-3H-imidazo[4,5-b]pyridin-5-yl)piperidin-3-yl)(pyrrolidin-1-yl)methanone], under setting [1], the half-maximal inhibitory concentration (IC50) turned out to be 0.202 µM. Turning to `CCc1csc(-c2nc3ccc(N4CCC[C@@H](C(=O)N5CCCC5)C4)nc3[nH]2)n1` [Example 40, (R)-(1-(2-(4-Ethylthiazol-2-yl)-3H-imidazo[4,5-b]pyridin-5-yl)piperidin-3-yl)(pyrrolidin-1-yl)methanone], the IC50 under setting [1] was found to be 0.00647 µM. `Cc1cccc(C2(c3nc4ccc(N5CCC[C@@H](C(=O)N6CCCC6)C5)nc4[nH]3)CC2)c1` [Example 97, (R)-Pyrrolidin-1-yl(1-(2-(1-m-tolylcyclopropyl)-3H-imidazo[4,5-b]pyridin-5-yl)piperidin-3-yl)methanone]: under setting [1], the half-maximal inhibitory concentration (IC50) was 0.0969 µM. As for `O=C([C@@H]1CCCN(c2ccc3nc(-c4ccnc(C5CC5)n4)[nH]c3n2)C1)N1CCC1` [Example 220, (R)-Azetidin-1-yl(1-(2-(2-cyclopropylpyrimidin-4-yl)-3H-imidazo[4,5-b]pyridin-5-yl)piperidin-3-yl)methanone], under setting [1], the IC50 is 0.27 µM. Regarding `O=C([C@@H]1CCCN(c2ccc3nc(C4(n5cc(Cl)cn5)CC4)[nH]c3n2)C1)N1CCC1` [Example 205, (R)-Azetidin-1-yl(1-(2-(1-(4-chloro-1H-pyrazol-1-yl)cyclopropyl)-3H-imidazo[4,5-b]pyridin-5-yl)piperidin-3-yl)methanone], under setting [1], the 50% inhibitory concentration (IC50) amounted to 0.188 µM. As for `c1cc(-c2nc3ccc(N4CCC[C@@H](c5ncc6n5CCC6)C4)nc3[nH]2)nc(C2CC2)n1` [Example 134, (R)-2-(2-Cyclopropylpyrimidin-4-yl)-5-(3-(6,7-dihydro-5H-pyrrolo[1,2-c]imidazol-3-yl)piperidin-1-yl)-3H-imidazo[4,5-b]pyridine], the concentration for half-maximal inhibition (IC50) under setting [1] came to 0.21 µM.
